Literature values in patent US20220280449A1, “CURCUMINOID COMPOSITIONS” (priority 2018, published 2022).

Tested on: Caco-2 cells

- predicted absorption in humans (from correlation of Caco-2 Papp with human absorption): 0-20%
- apparent permeability coefficient (Papp value) (in vitro human intestinal cell model (Caco-2)): 1e-07 cm/s
Compound: COc1cc(/C=C/C(=O)CC(=O)/C=C/c2ccc(O)c(OC)c2)ccc1O [curcumin]
